Experimental data published in patent US6841519B1, “Isoxazoline derivatives and herbicides containing the same as the active ingredient” (Kumiai Chemical Industry Co., Ltd., priority 1999, dated 2005).

Key:
Assay type in all cases: in vivo
[1] = system: Echinochloa crus-galli (L.) Beauv. var. crusgall (Ec); assay: Test for herbicidal effect by upland field soil treatment (Test Example 2), Ec
How it was run: (§1)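 Pre-emergence soil treatment: wettable powder diluted in water and sprayed on soil just sown with Ec and Se seeds, delivering 100 g active ingredient per 10 ares in 100 liters per 10 ares. Herbicidal effect was rated against a fixed scale 21 days later, after greenhouse growth.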

[2] = system: Polygonum lapathifolium L. subsp. nodosum (Pers.) Kitam. (Po); assay: Test for herbicidal effect to broadleaf weeds by upland field soil treatment (Test Example 6), Po; conditions: 25 g/10 a active ingredient, 30th day
Procedure: (§2) Test for herbicidal effect to broadleaf weeds by upland field soil treatment
(§3) An upland field soil was filled in a plastic pot of 80 cm^2. Seeds of Polygonum lapathifolium L. subsp. nodosum (Pers.) Kitam. (Po) and Chenopodium album L. (Ch) were sowed, followed by covering with the same soil. Wettable powders produced in accordance with the Formulation 1 were diluted with water and sprayed uniformly on the soil surface using a small sprayer, […] Then, breeding was made in a greenhouse. At the 30th day from the treatment, the herbicidal effect of each wettable powder was examined in accordance with the standard shown in Table 40.

[3] = system: Echinochloa oryzicola Vasing. (Eo); assay: Test for herbicidal effect by paddy field soil treatment (Test Example 1); conditions: application amount (active ingredient) 100 g/10 a, examined at the 21st day from the treatment, index per Table 40
How it was run: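 Scored on a standard scale at day 21 in the greenhouse: herbicidal effect of wettable powder applied to flooded water (3 cm depth) at 100 g a.i./10 ares, one day after sowing Eo into puddled paddy soil.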

[4] = system: Chenopodium album L. (Ch); assay: Test for herbicidal effect to broadleaf weeds by upland field soil treatment (Test Example 6), Ch; conditions: 25 g/10 a active ingredient, 30th day
Procedure: as §2, §3

[5] = system: Echinochloa crus-galli (L.) Beauv. var. crusgalli (Ec); assay: Test for herbicidal effect by upland foliage treatment (Test Example 3); conditions: 100 g/10 a active ingredient, examined at 14th day
How it was run: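 Scored 14 days post-spray against a graded standard: greenhouse-grown Ec, 2 weeks old in upland soil, received whole-foliage application of diluted wettable powder (100 g active ingredient per 10 ares, spray volume 100 L per 10 ares).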

[6] = system: Setaria viridis (L.) Beauv. (Se); assay: Test for herbicidal effect by upland field soil treatment (Test Example 2), Se
How it was run: as §1

[7] = system: Echinochloa oryzicola Vasing. (Eo); assay: Test for crop selectivity by paddy field soil treatment (Test Example 4), herbicidal effect on Eo; conditions: 100 g/10 a active ingredient, 21st day
Procedure: (§4) [table] <Test Example 4> Test For Crop Selectivity By Paddy Field Soil Treatment A paddy field soil was filled in a plastic pot of 100 cm^2 and subjected to puddling. Seeds of Echinochloa oryzicola Vasing. (Eo) were sowed; two-leaf stage seedlings of rice (Or) were transplanted in a depth of 2 cm; and water was filled in a depth of 3 cm. Next day, wettable powders produced in accordance with the Formulation 1 were diluted with water and dropped on the water surface. The application amount of each wettable powder was 100 g per 10 ares in terms of the active ingredient. Then, breeding was made in a greenhouse. At the 21st day from the treatment, the phytotoxicity and herbicidal effect of each wettable powder were examined in accordance with the standard shown in Table 40.

rice (Or) = assay: Test for crop selectivity by paddy field soil treatment (Test Example 4), phytotoxicity to rice; conditions: transplanted two-leaf stage rice, 100 g/10 a active ingredient, 21st day
Procedure: as §4

[8] = 100 g/10 a active ingredient, examined at 21st day
[9] = application amount (active ingredient) 100 g/10 a, examined at the 21st day from the treatment, index per Table 40

SMILES	Herbicidal effect to Ec [1, 8]	Herbicidal effect to Po [2]	Herbicidal effect to Eo [3]	Herbicidal effect to Ch [4]	Herbicidal effect to Ec [5]	Herbicidal effect to Se [6, 8]	Herbicidal effect to Ec [1, 9]	Herbicidal effect to Eo [7]	Phytotoxicity to Or (rice (Or))	Herbicidal effect to Se [6, 9]
CC1(C)CC(S(=O)(=O)Cc2c(F)cc(F)cc2F)=NO1 [Compound 1-500]	5 (A herbicidal effect or phytotoxicity of 90% or more)	5 (A herbicidal effect or phytotoxicity of 90% or more)	5 (A herbicidal effect or phytotoxicity of 90% or more)	4 (A herbicidal effect or phytotoxicity of 70% to less than 90%)	5 (A herbicidal effect or phytotoxicity of 90% or more)	5 (A herbicidal effect or phytotoxicity of 90% or more)	–	–	–	–
COC(=O)c1cccc(F)c1CS(=O)(=O)C1=NOC(C)(C)C1 [Compound 1-555]	5 (A herbicidal effect or phytotoxicity of 90% or more)	5 (A herbicidal effect or phytotoxicity of 90% or more)	5 (A herbicidal effect or phytotoxicity of 90% or more)	4 (A herbicidal effect or phytotoxicity of 70% to less than 90%)	4 (A herbicidal effect or phytotoxicity of 70% to less than 90%)	5 (A herbicidal effect or phytotoxicity of 90% or more)	–	–	–	–
CCC1(C)CC(S(=O)(=O)Cc2ccc(C)cc2)=NO1 (centres unmarked) [Compound 1-203]	–	–	5 (A herbicidal effect or phytotoxicity of 90% or more)	–	4 (A herbicidal effect or phytotoxicity of 70% to less than 90%)	–	5 (A herbicidal effect or phytotoxicity of 90% or more)	5 (A herbicidal effect or phytotoxicity of 90% or more)	1 (A herbicidal effect or phytotoxicity of 10% to less than 30%)	4 (A herbicidal effect or phytotoxicity of 70% to less than 90%)
CCOc1cccc(F)c1CS(=O)(=O)C1=NOC(C)(C)C1 [Compound 1-526]	5 (A herbicidal effect or phytotoxicity of 90% or more)	5 (A herbicidal effect or phytotoxicity of 90% or more)	5 (A herbicidal effect or phytotoxicity of 90% or more)	5 (A herbicidal effect or phytotoxicity of 90% or more)	5 (A herbicidal effect or phytotoxicity of 90% or more)	5 (A herbicidal effect or phytotoxicity of 90% or more)	–	–	–	–
COc1ccc(C(C)C)c(C)c1CS(=O)(=O)C1=NOC(C)(C)C1 [Compound 1-584]	–	–	5 (A herbicidal effect or phytotoxicity of 90% or more)	–	5 (A herbicidal effect or phytotoxicity of 90% or more)	–	–	5 (A herbicidal effect or phytotoxicity of 90% or more)	1 (A herbicidal effect or phytotoxicity of 10% to less than 30%)	–
CCC1(C)CC(S(=O)(=O)Cc2cccc(OC)c2)=NO1 (centres unmarked) [Compound 1-229]	–	–	5 (A herbicidal effect or phytotoxicity of 90% or more)	–	4 (A herbicidal effect or phytotoxicity of 70% to less than 90%)	–	5 (A herbicidal effect or phytotoxicity of 90% or more)	5 (A herbicidal effect or phytotoxicity of 90% or more)	1 (A herbicidal effect or phytotoxicity of 10% to less than 30%)	5 (A herbicidal effect or phytotoxicity of 90% or more)
CC1CC(S(=O)(=O)Cc2c(F)cccc2F)=NO1 (centres unmarked) [Compound 1-532]	5 (A herbicidal effect or phytotoxicity of 90% or more)	5 (A herbicidal effect or phytotoxicity of 90% or more)	5 (A herbicidal effect or phytotoxicity of 90% or more)	5 (A herbicidal effect or phytotoxicity of 90% or more)	4 (A herbicidal effect or phytotoxicity of 70% to less than 90%)	4 (A herbicidal effect or phytotoxicity of 70% to less than 90%)	–	–	–	–
CCCCOc1cccc(Cl)c1CS(=O)(=O)C1=NOC(C)(C)C1 [Compound 1-574]	5 (A herbicidal effect or phytotoxicity of 90% or more)	–	5 (A herbicidal effect or phytotoxicity of 90% or more)	–	4 (A herbicidal effect or phytotoxicity of 70% to less than 90%)	5 (A herbicidal effect or phytotoxicity of 90% or more)	–	5 (A herbicidal effect or phytotoxicity of 90% or more)	1 (A herbicidal effect or phytotoxicity of 10% to less than 30%)	–
COC(=O)c1cccc(CS(=O)(=O)C2=NOC(C)(C)C2)c1[N+](=O)[O-] [Compound 1-503]	5 (A herbicidal effect or phytotoxicity of 90% or more)	–	5 (A herbicidal effect or phytotoxicity of 90% or more)	–	4 (A herbicidal effect or phytotoxicity of 70% to less than 90%)	5 (A herbicidal effect or phytotoxicity of 90% or more)	–	5 (A herbicidal effect or phytotoxicity of 90% or more)	0 (A herbicidal effect or phytotoxicity of 0% to less than 10%)	–
CC12CCCCCC1C(S(=O)(=O)Cc1c(F)cccc1F)=NO2 (centres unmarked) [Compound 1-556]	5 (A herbicidal effect or phytotoxicity of 90% or more)	–	5 (A herbicidal effect or phytotoxicity of 90% or more)	–	4 (A herbicidal effect or phytotoxicity of 70% to less than 90%)	4 (A herbicidal effect or phytotoxicity of 70% to less than 90%)	–	5 (A herbicidal effect or phytotoxicity of 90% or more)	0 (A herbicidal effect or phytotoxicity of 0% to less than 10%)	–
C=CCOC(=O)c1ccccc1CS(=O)(=O)C1=NOC(C)(C)C1 [Compound 1-599]	5 (A herbicidal effect or phytotoxicity of 90% or more)	–	5 (A herbicidal effect or phytotoxicity of 90% or more)	–	4 (A herbicidal effect or phytotoxicity of 70% to less than 90%)	5 (A herbicidal effect or phytotoxicity of 90% or more)	–	5 (A herbicidal effect or phytotoxicity of 90% or more)	1 (A herbicidal effect or phytotoxicity of 10% to less than 30%)	–
CC1(C)CC(S(=O)(=O)Cc2ccccc2Cl)=NO1 [Compound 1-2]	–	–	5 (A herbicidal effect or phytotoxicity of 90% or more)	4 (A herbicidal effect or phytotoxicity of 70% to less than 90%)	4 (A herbicidal effect or phytotoxicity of 70% to less than 90%)	–	5 (A herbicidal effect or phytotoxicity of 90% or more)	–	–	5 (A herbicidal effect or phytotoxicity of 90% or more)
COC(=O)c1ccccc1CS(=O)(=O)C1=NOC(C)(C)C1 [Compound 1-145]	–	–	5 (A herbicidal effect or phytotoxicity of 90% or more)	–	4 (A herbicidal effect or phytotoxicity of 70% to less than 90%)	–	5 (A herbicidal effect or phytotoxicity of 90% or more)	5 (A herbicidal effect or phytotoxicity of 90% or more)	0 (A herbicidal effect or phytotoxicity of 0% to less than 10%)	5 (A herbicidal effect or phytotoxicity of 90% or more)
O=S(=O)(Cc1c(F)cccc1F)C1=NOC(C2CC2)(C2CC2)C1 [Compound 1-520]	5 (A herbicidal effect or phytotoxicity of 90% or more)	–	5 (A herbicidal effect or phytotoxicity of 90% or more)	–	4 (A herbicidal effect or phytotoxicity of 70% to less than 90%)	5 (A herbicidal effect or phytotoxicity of 90% or more)	–	5 (A herbicidal effect or phytotoxicity of 90% or more)	1 (A herbicidal effect or phytotoxicity of 10% to less than 30%)	–
CCCCOCc1ccccc1CS(=O)(=O)C1=NOC(C)(C)C1 [Compound 1-615]	5 (A herbicidal effect or phytotoxicity of 90% or more)	–	5 (A herbicidal effect or phytotoxicity of 90% or more)	–	–	5 (A herbicidal effect or phytotoxicity of 90% or more)	–	5 (A herbicidal effect or phytotoxicity of 90% or more)	1 (A herbicidal effect or phytotoxicity of 10% to less than 30%)	–
